For 32 compounds, IC50 results are on record in patent publication US20230234943A1, “TREX1 INHIBITORS AND USES THEREOF” (Tempest Therapeutics, Inc., priority 2020, published 2023).

Some results are limits rather than exact numbers.

In this assay the target is T1, Human TREX1 enzyme (amino acids 1-242) (Homo sapiens, UniProt Q9NSU2).
T1 construct: Human TREX1 enzyme (amino acids 1-242)
T1 sequence (Q9NSU2 1-242): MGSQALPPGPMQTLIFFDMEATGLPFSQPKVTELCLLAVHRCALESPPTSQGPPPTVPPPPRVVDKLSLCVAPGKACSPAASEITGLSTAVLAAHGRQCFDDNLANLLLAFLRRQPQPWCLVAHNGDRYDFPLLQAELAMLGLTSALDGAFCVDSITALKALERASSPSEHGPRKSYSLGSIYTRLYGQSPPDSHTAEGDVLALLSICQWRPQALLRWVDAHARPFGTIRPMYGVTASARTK
The experiment in a line: Human TREX1 enzymatic assay with dsDNA native oligonucleotide (Picogreen fluorescence). It counts as biochemical. The following applies: 2 mM dithiothreitol in assay buffer; 50 nM dsDNA oligonucleotide; 30 min preincubation at 25° C.; read-out: TREX1/Human + DTT IC50 AVG. As to the method: Example A. Human TREX1 Enzymatic Assay with dsDNA Native Oligonucleotide
Human TREX1 enzyme (amino acids 1-242) was diluted in assay buffer (20 mM Tris pH 7.7, 5 mM MgCl2, 0.01% human serum albumin, 0.01% Brij™-35, 2 mM dithiothreitol) to a final concentration of 0.8 nM to 0.16 nM and added to a 96-well low-binding polypropylene plate. Test compounds were diluted in DMSO to 50× concentration (final DMSO concentration in reaction mixture of 2%) and added to the wells with a concentration ranging from 300 μM to 13 nM or 30 μM to 1.5 nM. The reaction mixtures were incubated for 30 minutes at 25° C. and a solution of annealed dsDNA oligonucleotide (5′-[…]-3′ and Comp: 5′-[…]-3′) was added to a final concentration of 50 nM. The reaction mixtures were incubated at 25° C. for 5-15 minutes and subsequently quenched by transferring part of the assay reaction to a solution of 100 mM ethylenediaminetetraacetic acid and 1:100 Picogreen™ (final concentration of […]) in a black plate with an opaque bottom. The fluorescence ([…]) was measured using a Molecular Devices SpectraMax plate reader. Wells containing oligonucleotide but no TREX1 enzyme were used as negative controls. Wells containing oligonucleotide, TREX1 enzyme, and DMSO were used as positive controls.

Regarding `COc1cc(-c2nc3ccc(-c4cnn(C)c4)cc3n2C2(C)COC2)c(F)c(O)c1O` [Example 265, 3-fluoro-6-methoxy-4-(6-(1-methyl-1H-pyrazol-4-yl)-1-(3-methyloxetan-3-yl)-1H-benzo[d]imidazol-2-yl)benzene-1,2-diol], the IC50 was no more than 0.1 µM.
For `COc1cc(-c2nc3cc(N4CCN(C)C(=O)C4)ccc3n2C2(C)COC2)c(F)c(O)c1O` [Example 278, 4-(2-(2-fluoro-3,4-dihydroxy-5-methoxyphenyl)-1-(3-methyloxetan-3-yl)-1H-benzo[d]imidazol-5-yl)-1-methylpiperazin-2-one], the IC50 was no more than 0.1 µM.
For `COc1cc(-c2nc3cc(N4CCNCC4)ccc3[nH]2)cc(O)c1O` [Example 18, 3-methoxy-5-(5-(piperazin-1-yl)-1H-benzo[d]imidazol-2-yl)benzene-1,2-diol], the IC50 was greater than 100 µM.
For the compound `COc1cc(-c2nc3cc(N4CCN(c5ccccc5)CC4)ccc3[nH]2)cc(O)c1O` [Example 53, 3-methoxy-5-(5-(4-phenylpiperazin-1-yl)-1H-benzo[d]imidazol-2-yl)benzene-1,2-diol], the IC50 was greater than 100 µM.
With `COc1cc(-c2nc3cc(N4CCN(C(=O)c5cc(C)cc(C)c5)CC4)ccc3[nH]2)cc(O)c1O` [Example 125, (4-(2-(3,4-dihydroxy-5-methoxyphenyl)-1H-benzo[d]imidazol-5-yl)piperazin-1-yl)(3,5-dimethylphenyl)methanone] the figure was greater than 100 µM; with `C=CCCC(=O)N1CCN(c2ccc3[nH]c(-c4cc(O)c(O)c(OC)c4)nc3c2)CC1` [Example 33, 1-(4-(2-(3,4-dihydroxy-5-methoxyphenyl)-1H-benzo[d]imidazol-5-yl)piperazin-1-yl)pent-4-en-1-one], 10 to 100 µM.
Consider `CNC(=O)c1ccc2nc(-c3cc(OC)c(O)c(O)c3F)n(C3(C)CCC3)c2c1` [Example 310, 2-(2-fluoro-3,4-dihydroxy-5-methoxyphenyl)-N-methyl-1-(1-methylcyclobutyl)-1H-benzo[d]imidazole-6-carboxamide], for which the IC50 is no more than 0.1 µM.
With `COc1cc(-c2nc3ccccc3n2-c2ccccc2)c(F)c(O)c1O` [Example 331, 3-fluoro-6-methoxy-4-(l-phenyl-1H-1,3-benzodiazol-2-yl)benzene-1,2-diol], the IC50 was in the range of 1 to 10 µM.
With `COc1cc(-c2nc3cc(C4CCN(C)CC4)ccc3[nH]2)cc(O)c1O` [Example 68, 3-methoxy-5-(5-(1-methylpiperidin-4-yl)-1H-benzo[d]imidazol-2-yl)benzene-1,2-diol] the figure was greater than 100 µM.
Consider `COc1cc(-c2nc3c(Cl)c(Cl)ccc3n2C2(C)COC2)cc(O)c1O` [Example 301, 5-(4,5-dichloro-1-(3-methyloxetan-3-yl)-1H-benzo[d]imidazol-2-yl)-3-methoxybenzene-1,2-diol], for which the IC50 is 0.1 to 1 µM.
Consider `COc1cc(-c2nc3cc(N4CC(C)C4)ccc3[nH]2)cc(O)c1O` [Example 143, 3-methoxy-5-(5-(3-methylazetidin-1-yl)-1H-benzo[d]imidazol-2-yl)benzene-1,2-diol], for which the IC50 was greater than 100 µM.
`COc1cc(-c2nc3cnccc3n2C2(C)COC2)c(F)c(O)c1O` [Example 229, 3-fluoro-6-methoxy-4-(1-(3-methyloxetan-3-yl)-1H-imidazo[4,5-c]pyridin-2-yl)benzene-1,2-diol]: the IC50 fell in the range of 1 to 10 µM.
`O=C(O)c1ccc(-c2nc3ccccc3n2C2COC2)c(C(F)(F)F)c1O` [Example 161, 2-hydroxy-4-(1-(oxetan-3-yl)-1H-benzo[d]imidazol-2-yl)-3-(trifluoromethyl)benzoic acid]: the IC50 was greater than 100 µM.
Regarding `Cc1cc(C(=O)O)c(O)cc1-c1nc2ccccc2n1C1COC1` [Example 171, 2-hydroxy-5-methyl-4-(1-(oxetan-3-yl)-1H-benzo[d]imidazol-2-yl)benzoic acid], the IC50 was greater than 100 µM.
In the case of `COc1cc(-c2nc3cc(N4CCC(c5ccccc5)CC4)ccc3[nH]2)cc(O)c1O` [Example 49, 3-methoxy-5-(5-(4-phenylpiperidin-1-yl)-1H-benzo[d]imidazol-2-yl)benzene-1,2-diol], the IC50 is greater than 100 µM.
Consider `COc1cc(-c2nc3cc(NC(=O)c4cccnc4)ccc3n2C2(C)COC2)c(F)c(O)c1O` [Example 304, N-(2-(2-fluoro-3,4-dihydroxy-5-methoxyphenyl)-1-(3-methyloxetan-3-yl)-1H-benzo[d]imidazol-5-yl)nicotinamide], for which the IC50 was 0.1 to 1 µM.
Take `COc1cc(-c2nc3ccc(C(=O)NC(C)(C)C)cc3n2C2(C)COC2)c(F)c(O)c1O` [Example 243, N-tert-butyl-2-(2-fluoro-3,4-dihydroxy-5-methoxyphenyl)-1-(3-methyloxetan-3-yl)-1H-1,3-benzodiazole-6-carboxamide]: the IC50 was in the range of 0.1 to 1 µM.
`COc1cc(-c2nc3cc(N4CCN(C(=O)c5ccc(Cl)cc5)CC4)ccc3[nH]2)cc(O)c1O` [Example 84, (4-chlorophenyl)(4-(2-(3,4-dihydroxy-5-methoxyphenyl)-1H-benzo[d]imidazol-5-yl)piperazin-1-yl)methanone]: the IC50 is greater than 100 µM.
`O=C(O)c1cc(-c2nc3cc(N4CCC4)ccc3[nH]2)ccc1O` [Example 115, 5-(5-(azetidin-1-yl)-1H-benzo[d]imidazol-2-yl)-2-hydroxybenzoic acid]: the IC50 lay in the range of 10 to 100 µM.
With `COc1cc(-c2nc3cc(NC(=O)C4CC4)ccc3n2C2(C)COC2)c(F)c(O)c1O` [Example 204, N-[2-(2-fluoro-3,4-dihydroxy-5-methoxyphenyl)-1-(3-methyloxetan-3-yl)-1H-1,3-benzodiazol-5-yl]cyclopropanecarboxamide] the figure was no more than 0.1 µM; with `COc1cc(-c2nc3ccc(N4CCC4)cc3n2C2COC2)cc(O)c1O` [Example 285, 5-(6-(azetidin-1-yl)-1-(oxetan-3-yl)-1H-benzo[d]imidazol-2-yl)-3-methoxybenzene-1,2-diol], 1 to 10 µM.
`COc1cc(-c2nc3ccncc3n2C2COC2)cc(O)c1O` [Example 43, 3-methoxy-5-(3-(oxetan-3-yl)-3H-imidazo[4,5-c]pyridin-2-yl)benzene-1,2-diol]: the IC50 lay in the range of 10 to 100 µM.
For the compound `COc1cc(-c2nc3ccc(C(=O)NC4CCNC4)cc3n2C2(C)COC2)c(F)c(O)c1O` (centres unmarked) [Example 261, 2-(2-fluoro-3,4-dihydroxy-5-methoxyphenyl)-1-(3-methyloxetan-3-yl)-N-(pyrrolidin-3-yl)-1H-benzo[d]imidazole-6-carboxamide], the IC50 lay within 0.1 to 1 µM.
Regarding `O=C(O)c1c(O)cc(-c2nc3ccncc3[nH]2)cc1F` [Example 90, 2-fluoro-6-hydroxy-4-(3H-imidazo[4,5-c]pyridin-2-yl)benzoic acid], the IC50 was in the range of 10 to 100 µM.
Turning to `COc1cc(-c2nc3cc(N4CCN(CCF)CC4)ccc3[nH]2)cc(O)c1O` [Example 66, 5-(5-(4-(2-fluoroethyl)piperazin-1-yl)-1H-benzo[d]imidazol-2-yl)-3-methoxybenzene-1,2-diol], the IC50 was in the range of 10 to 100 µM.
For `COc1cc(-c2nc3ccccc3n2C2CCC2)c(F)c(O)c1O` [Example 327, 4-(1-cyclobutyl-1H-benzo[d]imidazol-2-yl)-3-fluoro-6-methoxybenzene-1,2-diol] the value was 1 to 10 µM.
For `COc1cc(-c2nc3ccc(N4CCOCC4=O)cc3n2C2(C)COC2)c(F)c(O)c1O` [Example 277, 4-(2-(2-fluoro-3,4-dihydroxy-5-methoxyphenyl)-1-(3-methyloxetan-3-yl)-1H-benzo[d]imidazol-6-yl)morpholin-3-one] the value was 1 to 10 µM; for `COc1cc(-c2nc3cc(C4CCCCC4)ccc3[nH]2)cc(O)c1O` [Example 75, 5-(5-cyclohexyl-1H-benzo[d]imidazol-2-yl)-3-methoxybenzene-1,2-diol], greater than 100 µM.
Take `COc1cc(-c2nc3cc(N4CCCC4=O)ccc3n2C2(C)COC2)c(F)c(O)c1O` [Example 190, 1-[2-(2-fluoro-3,4-dihydroxy-5-methoxyphenyl)-1-(3-methyloxetan-3-yl)-1H-1,3-benzodiazol-5-yl]pyrrolidin-2-one]: the IC50 was in the range of 0.1 to 1 µM.
Consider `COc1cc(-c2nc3ccccc3n2C2CN(C(C)=O)C2)c(C)c(O)c1O` [Example 321, 1-(3-(2-(3,4-dihydroxy-5-methoxy-2-methylphenyl)-1H-benzo[d]imidazol-1-yl)azetidin-1-yl)ethan-1-one], for which the IC50 is greater than 100 µM.
With `CNC(=O)c1ccc2c(c1)nc(-c1cc(OC)c(O)c(O)c1F)n2C1(C)COC1` [Example 308, 2-(2-fluoro-3,4-dihydroxy-5-methoxyphenyl)-N-methyl-1-(3-methyloxetan-3-yl)-1H-benzo[d]imidazole-5-carboxamide], the IC50 fell in the range of 0.1 to 1 µM.
`COc1cc(-c2nc3cc(N4CCN(C)CC4)ccc3n2C2COC2)cc(O)c1O` [Example 60, 3-methoxy-5-(5-(4-methylpiperazin-1-yl)-1-(oxetan-3-yl)-1H-benzo[d]imidazol-2-yl)benzene-1,2-diol]: the IC50 is 10 to 100 µM.
